Counter-ions that a name gives are not always drawn. Like-named read-outs stand apart in the source and are kept apart here.
Legend:
[1] = test system: c-Kit; set-up: method as in S-inhibitor catalog; details: vendor brief description; ref S-inhibitor catalog; cited from earlier work
[2] = test system: HDAC; set-up: method as in S-inhibitor catalog; details: vendor brief description; ref S-inhibitor catalog; cited from earlier work
[3] = test system: Toxoplasma gondii RH-2F tachyzoites; assay: microbe, parasite or virus in culture; details: 72 h
[4] = test system: ErbB1; set-up: method as in S-inhibitor catalog; details: vendor brief description; ref S-inhibitor catalog; cited from earlier work
[5] = test system: ErbB2; set-up: method as in S-inhibitor catalog; details: vendor brief description; ref S-inhibitor catalog; cited from earlier work
[6] = test system: CDK1; set-up: method as in S-inhibitor catalog; details: vendor brief description; ref S-inhibitor catalog; cited from earlier work
[7] = test system: CDK9; set-up: method as in S-inhibitor catalog; details: vendor brief description; ref S-inhibitor catalog; cited from earlier work
[8] = test system: CYP17; set-up: method as in S-inhibitor catalog; details: vendor brief description; ref S-inhibitor catalog; cited from earlier work
[9] = in vitro; details: human, Host viability (%) mean
[10] = test system: VEGFR2; set-up: method as in S-inhibitor catalog; details: vendor brief description; ref S-inhibitor catalog; cited from earlier work
[11] = target: histamine 1 (H1) receptor; set-up: method as in vendor brief description; details: ref vendor brief description; cited from earlier work
[12] = target: H3-receptor; set-up: method as in vendor brief description; details: ref vendor brief description, cited from earlier work
[13] = target: endothelin receptor-A; set-up: method as in vendor brief description; details: ref vendor brief description; cited from earlier work
[14] = target: N-methyl-D-aspartate (NMDA) receptor; set-up: method as in vendor brief description; details: ref vendor brief description; cited from earlier work
[15] = target: mTOR; set-up: method as in vendor brief description; details: ref vendor brief description; cited from earlier work
[16] = test system: TRPA1 channel; set-up: method as in vendor brief description; details: ref vendor brief description, cited from earlier work
[17] = target: epidermal growth factor receptor (EGFR); set-up: method as in vendor brief description; details: ref vendor brief description; read-out: IC50 EGFR; cited from earlier work
[18] = test system: Aurora A; set-up: method as in S-inhibitor; details: ref S-inhibitor; cited from earlier work
[19] = test system: Abl; set-up: method as in S-inhibitor; details: ref S-inhibitor; read-out: IC50, Abl; cited from earlier work
[20] = test system: HSP90; set-up: method as in S-inhibitor catalog; details: vendor brief description; ref S-inhibitor catalog; cited from earlier work
[21] = test system: Kir2.1; set-up: method as in vendor brief description; details: ref vendor brief description, cited from earlier work
[22] = test system: c-Kit; set-up: method as in library vendor description; details: ref library vendor description; cited from earlier work
[23] = test system: PDGFR; details: read-out: IC50 PDGFR; ref library vendor description; cited from earlier work
[24] = test system: c-Met; set-up: method as in S-inhibitor catalog; details: vendor brief description; ref S-inhibitor catalog; cited from earlier work
[25] = target: Bcl-2; set-up: method as in library vendor description; details: ref library vendor description; cited from earlier work
[26] = test system: Smoothened (Smo); set-up: method as in S-inhibitor catalog; details: vendor brief description; ref S-inhibitor catalog; cited from earlier work
[27] = test system: VEGFR1; set-up: method as in library vendor description; details: ref library vendor description; cited from earlier work
[28] = test system: CDK; set-up: method as in S-inhibitor catalog; details: vendor brief description; ref S-inhibitor catalog; cited from earlier work
[29] = test system: 5-HT2B; set-up: method as in S-inhibitor catalog; details: vendor brief description; ref S-inhibitor catalog; cited from earlier work
[30] = test system: JAK1; set-up: method as in vendor brief description; details: ref vendor brief description; cited from earlier work
[31] = test system: hTRPV1; set-up: method as in S-inhibitor catalog; details: in HEK293 cells; vendor brief description; ref S-inhibitor catalog; cited from earlier work
[32] = test system: ATR; set-up: method as in vendor brief description; details: ref vendor brief description; cited from earlier work
[33] = target: 5-HT3A; set-up: method as in vendor brief description; details: ref vendor brief description; cited from earlier work
[34] = test system: CXCR4; set-up: method as in vendor brief description; details: ref vendor brief description; cited from earlier work
[35] = test system: FGFR1; details: read-out: IC50, FGFR1; vendor brief description; ref S-inhibitor catalog; cited from earlier work
[36] = test system: Toxoplasma gondii RH-2F tachyzoites; details: preliminary screen of compound library; mean
[37] = test system: Akt1; set-up: method as in vendor brief description; details: ref vendor brief description; cited from earlier work
[38] = read-out: Parasite inhibition (%) mean, preliminary screen of compound library, mean
[39] = read-out: Parasite inhibition (%) mean, preliminary screen, mean

For `CN1CCN(c2ccc3nc(-c4c(N)c5c(F)cccc5[nH]c4=O)[nH]c3c2)CC1`, the IC50 [1] is given as 2 nM.
For `CC(C)[C@H](C(=O)Nc1ccc(C(=O)NO)cc1)c1ccccc1` [AR-42 (HDAC-42)], the IC50 [2] is given as 30 nM and the inhibition of growth at 5 µM [3, 38] is given as 61%.
For `C[C@@H]1COC(Nc2ccc3ncnc(Nc4ccc(OCc5nccs5)c(Cl)c4)c3c2)=N1` [ARRY334543], the IC50 [4] is given as 7 nM, the IC50 [5] is given as 2 nM and the inhibition of growth at 5 µM [3, 38] is given as 12.4%.
For `Cc1ncc(-c2ccnc(Nc3ccc(S(C)(=O)=O)cc3)n2)n1C(C)C` [AZD5438], the IC50 [6] is listed as 16 nM, the IC50 [7] is listed as 20 nM and the inhibition of growth at 5 µM [3, 38] is listed as 6.8%.
In the case of `CC(=O)O[C@H]1CC[C@@]2(C)C(=CC[C@H]3[C@H]2CC[C@]2(C)C(c4cccnc4)=CC[C@@H]32)C1` [Abiraterone Acetate (CB7630)], the IC50 [8] is given as 72 nM and the inhibition of growth at 5 µM [3, 38] is given as 0.7%.
For `N#CC1(c2ccc(NC(=O)c3cccnc3NCc3ccncc3)cc2)CCCC1` [Apatinib (YN968D1)], the viability at 72 h [9] is listed as 63.8%, the IC50 [10] is listed as 1 nM and the inhibition of growth at 5 µM [3, 38] is listed as 77.6%.
For `O=C(O)CCCN1CCC(O[C@@H](c2ccc(Cl)cc2)c2ccccn2)CC1.O=S(=O)(O)c1ccccc1` [Bepotastine Besilate], the “pIC50 histamine 1 (H1) receptor” value [11] is given as “Bepotastine is a non-sedating, selective antagonist of histamine 1 (H1) receptor with pIC50 of 5.7” and the inhibition of growth at 5 µM [3, 38] is given as 50.1%.
For `CNCCc1ccccn1` [Betahistine 2HCl], the IC50 ([12]; read-out: IC50 histamine H3 receptors) is listed as 1900 nM and the inhibition of growth at 5 µM [3, 38] is listed as 3.2%.
For `COc1ccccc1Oc1c(NS(=O)(=O)c2ccc(C(C)(C)C)cc2)nc(-c2ncccn2)nc1OCCO` [Bosentan Hydrate], the Ki [13] is listed as […] and the inhibition of growth at 5 µM [3, 38] is listed as 5.3%.
In the case of `O=C(c1ccc(OCCCc2cnc[nH]2)cc1)C1CC1` [Ciproxifan], the IC50 ([12]; read-out: IC50 H3-receptor) is listed as 9.2 nM and the inhibition of growth at 5 µM [3, 38] is listed as 0.5%.
For `C[C@]12N[C@H](Cc3ccccc31)c1ccccc12` [Dizocilpine (MK 801)], the Ki [14] is listed as 30.5 nM and the inhibition of growth at 5 µM [3, 38] is listed as 0.4%.
For `CCNC(=O)Nc1ccc(-c2nc3c(c(N4CCOC[C@@H]4C)n2)CCN(C2COC2)C3)cc1` [GDC-0349], the Ki [15] is given as 3.8 nM and the inhibition of growth at 5 µM [3, 38] is given as -13.8%.
In the case of `C[C@]12CC[C@H](O)CC1=CCC1C2CC[C@]2(C)C(n3cnc4ccccc43)=CCC12` (some centres unmarked) [Galeterone (TOK-001)], the IC50 [8] is given as 300 nM and the inhibition of growth at 5 µM [3, 38] is given as 0.4%.
In the case of `CC(C)c1ccc(NC(=O)Cn2cnc3c2c(=O)n(C)c(=O)n3C)cc1` [HC-030031], the IC50 ([16]; AITC-evoked, read-out: IC50 AITC-evoked calcium influx) is listed as 6200 nM, the IC50 ([16]; formalin-evoked, read-out: IC50 formalin-evoked calcium influx) is listed as 5300 nM and the inhibition of growth at 5 µM [3, 38] is listed as 1.6%.
For `CC(C)n1nc(-c2ccc3oc(N)nc3c2)c2c(N)ncnc21` [INK 128 (MLN0128)], the IC50 [15] is listed as 1 nM and the inhibition of growth at 5 µM [3, 38] is listed as 27.8%.
For `C#Cc1cccc(Nc2ncnc3cc4c(cc23)OCCOCCOCCO4)c1` [Icotinib], the IC50 [17] is listed as 5 nM and the inhibition of growth at 5 µM [3, 38] is listed as 13.6%.
For `O=C(c1ccc(/C=C/c2n[nH]c3ccccc23)cc1)N1CCNCC1` [KW 2449], the viability at 72 h [9] is listed as 55.6%, the IC50 [18] is listed as 48 nM and the IC50 [19] is listed as 14 nM. The inhibition of growth at 5 µM [3, 39] was 70.2%.
In the case of `CCc1c(O)cc(O)c(C(=O)c2ccc(OCCN3CCOCC3)c(OC)c2)c1CC(=O)N(CCOC)CCOC` [KW-2478], the IC50 [20] is listed as 3.8 nM and the inhibition of growth at 5 µM [3, 38] is listed as 7.8%.
In the case of `CN(C)c1ccc(C(=O)NCCCCCCC(=O)NO)cc1` [M344], the IC50 [2] is given as 100 nM and the inhibition of growth at 5 µM [3, 38] is given as 44.6%.
In the case of `COc1ccc(CNCc2cccc3ccccc23)cc1` [ML133 HCl], the IC50 ([21]; pH 7.4) is given as 1800 nM, the IC50 ([21]; pH 8.5) is given as 290 nM and the inhibition of growth at 5 µM [3, 38] is given as 0.7%.
For `CC1(C)CNc2cc(NC(=O)c3cccnc3NCc3ccncc3)ccc21` [Motesanib Diphosphate (AMG-706)], the IC50 [22] is listed as 8 nM, the IC50 [23] is listed as 84 nM and the inhibition of growth at 5 µM [3, 39] is listed as -36.6%.
In the case of `Cn1cc(-c2ccc3ncc(Cc4ccc5ncccc5c4)n3n2)cn1` [NVP-BVU972], the IC50 [24] is listed as 14 nM and the inhibition of growth at 5 µM [3, 38] is listed as 38.8%.
In the case of `COC1=CC(c2cc3ccccc3[nH]2)=N/C1=C\c1[nH]c(C)cc1C` [Obatoclax mesylate (GX15-070)], the Ki [25] is listed as 220 nM and the inhibition of growth at 5 µM [3, 39] is listed as 52.7%.
In the case of `Cc1cnc(-c2cc(N3CCN(C(=O)CCS(C)(=O)=O)CC3)ncc2Cl)c(C)c1` [PF-5274857], the IC50 [26] is given as 5.8 nM, the Ki [26] is given as 4.6 nM and the inhibition of growth at 5 µM [3, 38] is given as -0.8%.
For `Cc1ccc(Nc2nccc(N(C)c3ccc4c(C)n(C)nc4c3)n2)cc1S(N)(=O)=O` [Pazopanib HCl], the IC50 [27] is listed as 10 nM, the IC50 [23] is listed as 84 nM and the inhibition of growth at 5 µM [3, 39] is listed as -2.6%.
In the case of `COc1ccc(F)c(F)c1C(=O)c1cnc(NC2CCN(S(C)(=O)=O)CC2)nc1N` [R547], the IC50 [28] is given as 80 nM, the Ki [28] is given as 1 to 3 nM and the inhibition of growth at 5 µM [3, 38] is given as 11.7%.
In the case of `CC(C)c1cc(-c2ccc(F)c3ccccc23)nc(N)n1` [RS-127445], the “pIC50, 5-HT2B” value [29] is given as 10.4, the “pKi, 5-HT2B” value [29] is given as 9.5 and the inhibition of growth at 5 µM [3, 38] is given as -0.7%.
In the case of `N#CC[C@@H](C1CCCC1)n1cc(-c2ncnc3[nH]ccc23)cn1` [S-Ruxolitinib], the IC50 [30] is given as […] and the inhibition of growth at 5 µM [3, 38] is given as 10.7%.
In the case of `O=C(Nc1ccccc1Br)N[C@@H]1CCN(c2ccc(C(F)(F)F)cn2)C1` [SB705498], the “pIC50, hTRPV1” value [31] is given as 7.1, the “pKi, hTRPV1” value [31] is given as 7.6 and the inhibition of growth at 5 µM [3, 38] is given as 0.6%.
In the case of `CS(=O)(=O)c1ccc(-c2cnc(N)c(C(=O)Nc3ccccc3)n2)cc1` [VE-821], the IC50 [32] is given as 26 nM, the Ki [32] is given as 13 nM and the inhibition of growth at 5 µM [3, 38] is given as -7.9%.
In the case of `CN1CCN(c2nc3ccccc3nc2Cl)CC1` [VUF 10166], the Ki [33] is given as 0.04 nM and the inhibition of growth at 5 µM [3, 38] is given as 0.4%.
For `c1ccc(NCc2ccc(CNc3ccccn3)cc2)nc1` [WZ 811], the EC50 [34] is given as 0.3 nM and the inhibition of growth at 5 µM [3, 38] is given as -5.7%.
For AZD4547, the IC50 [35] is listed as 0.2 nM.
For AZD5363, the “Parasite inhibition (%) mean” value [36] is given as 33.4% and the IC50 [37] is given as 3 nM.

From PMC7216583 (Parasites & Vectors, 2020)
